Data as given in PubChem BioAssay (NCI).
Several values for one entry are separate records, joined by “and”; a condition that tells them apart may be missing. Identical values can stand only once.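 Briefly, cells in 96-well plates were exposed to five compound concentrations for 48 h, and endpoints were estimated by linear interpolation. At the GI50, growth is halved. Definition used: TGI = concentration required for complete inhibition of growth.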

What was measured:
Assay in all cases: NCI anticancer screen, dose series, 48 h
[1] = test system: HCC-2998 colon
[2] = test system: T-47D breast
[3] = test system: BT-549 breast
[4] = test system: ACHN renal
[5] = test system: SNB-19 CNS
[6] = test system: RPMI-8226 leukemia
[7] = test system: HCT-116 colon
[8] = test system: OVCAR-3 ovarian
[9] = test system: COLO 205 colon
[10] = test system: 786-0 renal

COc1cc(O)c2c(c1)C(=O)c1cc3c(c(O)c1C2=O)C(OC1OC(C)C(O)C(O)C1OC)C(OC)C(C)(O)C3=O (stereo not given)
GI50 [1]: 2.22 µM
TGI [1]: 5.14 µM and 12.4 µM
GI50 [2]: 3.12 µM
TGI [2]: 9.21 µM
GI50 [3]: 2.07 µM
TGI [3]: 5.18 µM
GI50 [4]: 2.4 µM
TGI [4]: 12.4 µM
GI50 [5]: 2.42 µM
TGI [5]: 8.9 µM and 15.5 µM
GI50 [6]: 2.46 µM and 9.76 µM
TGI [6]: 59.6 µM and 30.5 µM
GI50 [7]: 1.63 µM and 0.665 µM
TGI [7]: 6.56 µM and 5.88 µM
GI50 [8]: 1.38 µM
TGI [8]: 5.83 µM and 2.04 µM
GI50 [9]: 1.31 µM
TGI [9]: 5.2 µM and 3.25 µM
GI50 [10]: 2.42 µM
TGI [10]: 40.5 µM

CNC(=O)Oc1cc(C)c(/C=C/c2cncc(C(=O)NC)c2)c(C)c1
GI50 [1]: > 25 µM
TGI [1]: > 25 µM
GI50 [2]: > 25 µM
TGI [2]: > 25 µM
GI50 [3]: > 25 µM
TGI [3]: > 25 µM
GI50 [4]: > 25 µM
TGI [4]: > 25 µM
GI50 [5]: > 25 µM
TGI [5]: > 25 µM
GI50 [6]: > 25 µM
TGI [6]: > 25 µM
GI50 [7]: > 25 µM
TGI [7]: > 25 µM
GI50 [8]: > 25 µM
TGI [8]: > 25 µM
GI50 [9]: > 25 µM
TGI [9]: > 25 µM
GI50 [10]: > 25 µM
TGI [10]: > 25 µM

COc1ccc(OC)c(-c2cc(=O)c3c(OC)c(OC)c(OC)c(OC)c3o2)c1
TGI [1]: 92.1 µM
TGI [2]: 21.3 µM
TGI [3]: > 100 µM
TGI [4]: 71.3 µM
TGI [5]: > 100 µM
TGI [6]: 76 µM
TGI [7]: > 100 µM
TGI [8]: 75.3 µM
TGI [9]: 31.6 µM
TGI [10]: 92.2 µM

COC(=O)[C@H](Cc1ccc(O)cc1)NC(=O)[C@@H](OC)[C@@H]1Cc2cc3cc(OC4CC(OC5CC(O)C(O)C(C)O5)C(O)C(C)O4)c(C)c(O)c3c(O)c2C(=O)[C@H]1OC1CC(OC2CC(OC3CC(C)(O)C(O)C(C)O3)C(O)C(C)O2)C(O)C(C)O1 (stereo not given in full)
GI50 [1]: 0.172 µM
TGI [1]: 0.758 µM
GI50 [2]: 0.0873 µM
TGI [2]: > 25 µM
GI50 [3]: 0.0782 µM
TGI [3]: 2.09 µM
GI50 [4]: 0.405 µM
TGI [4]: > 25 µM
GI50 [5]: 0.0713 µM
TGI [5]: > 25 µM
GI50 [6]: 0.0417 µM
TGI [6]: 2.02 µM
GI50 [7]: 0.0175 µM
TGI [7]: > 25 µM
GI50 [8]: 0.155 µM
TGI [8]: > 25 µM
GI50 [9]: 0.0932 µM
TGI [9]: 1.19 µM
GI50 [10]: 0.16 µM
TGI [10]: > 25 µM

C/C(=C\COc1c2c(cc3c1CCO3)OC1(C=C2)OC(CC/C(C)=C/COc2c3ccoc3cc3oc(=O)ccc23)C(C)(C)O1)CCC(O)C(C)(C)O (stereo not given)
GI50 [1]: 89.6 µM
TGI [1]: > 100 µM
GI50 [2]: 3.13 µM
TGI [2]: > 100 µM
GI50 [3]: 16.7 µM
TGI [3]: > 100 µM
GI50 [4]: 15 µM
TGI [4]: > 100 µM
GI50 [5]: 55.2 µM
TGI [5]: > 100 µM
GI50 [6]: 2.95 µM
TGI [6]: 23.2 µM
GI50 [7]: 18.4 µM
TGI [7]: > 100 µM
GI50 [8]: 15 µM
TGI [8]: > 100 µM
GI50 [9]: 23.1 µM
TGI [9]: > 100 µM
GI50 [10]: > 100 µM
TGI [10]: > 100 µM

CN(C)CCOC(c1ccccc1)c1ccccc1
TGI [1]: > 100 µM
GI50 [2]: 31.4 µM
TGI [2]: 57.2 µM and > 100 µM
GI50 [3]: 33.7 µM
TGI [3]: 48.4 µM
TGI [4]: > 100 µM
TGI [6]: > 100 µM
GI50 [7]: 32.1 µM
TGI [7]: 48.7 µM and > 100 µM
GI50 [8]: 36 µM
TGI [8]: 51.1 µM and > 100 µM
GI50 [9]: 14 µM
TGI [9]: 28.3 µM and > 100 µM
GI50 [10]: 35.1 µM
TGI [10]: 49.8 µM and > 100 µM

CCc1ccc2c(c1)N(CCO)C1=C(C(=O)OC1)C2c1cccc(Cl)c1 (stereo not given)
GI50 [1]: 1.35 µM
TGI [1]: 9.25 µM
GI50 [2]: 0.583 µM
TGI [2]: 26.4 µM
GI50 [3]: 1.98 µM
TGI [3]: 18.7 µM
GI50 [4]: 1.24 µM
TGI [4]: 31.6 µM
GI50 [5]: 1.33 µM
TGI [5]: 25.1 µM
GI50 [6]: 3.38 µM
TGI [6]: 52.6 µM
GI50 [7]: 0.498 µM
TGI [7]: 13.1 µM
GI50 [8]: 0.364 µM
TGI [8]: 1.68 µM
GI50 [9]: 0.522 µM
TGI [9]: 2.63 µM
GI50 [10]: 0.736 µM
TGI [10]: 19 µM

CCc1cc2c(cc1N1CCC(N3CCOCC3)CC1)C(C)(C)c1[nH]c3cc(C#N)ccc3c1C2=O
GI50 [1]: 4.33 µM and 3.73 µM
TGI [1]: > 43.7 µM and 17.8 µM and > 10 µM
GI50 [2]: 2.2 µM and 1.94 µM and 2.18 µM
TGI [2]: 10.9 µM and 5.32 µM and > 10 µM
GI50 [3]: 1.49 µM and 1.6 µM
TGI [3]: 3.69 µM and 3.87 µM
GI50 [4]: 1.92 µM and 1.54 µM and 1.41 µM
TGI [4]: 4.54 µM and 3.35 µM and 4.67 µM
GI50 [5]: 1.66 µM and 1.79 µM and 3.17 µM
TGI [5]: 4.02 µM and 4.44 µM and > 10 µM
GI50 [6]: 0.549 µM and 0.415 µM and 0.497 µM
TGI [6]: 8.9 µM and > 10 µM
GI50 [7]: 1.76 µM and 1.79 µM and 3.1 µM
TGI [7]: 3.85 µM and 3.6 µM and > 10 µM
GI50 [8]: 1.68 µM and 1.65 µM
TGI [8]: 4 µM and 3.42 µM and 3.91 µM
GI50 [9]: 1.95 µM and 2.21 µM and 1.64 µM
TGI [9]: 6.37 µM and 7.16 µM and 8.45 µM
GI50 [10]: 1.87 µM and 1.71 µM
TGI [10]: 4.01 µM and 3.76 µM and 3.46 µM

CC/C(=C(/c1ccc(O)cc1)c1ccc(OCCN2CCCCC2)cc1)c1ccc(OC)cc1
GI50 [1]: 2.9 µM
TGI [1]: 9.13 µM
GI50 [2]: 1.01 µM
TGI [2]: 3 µM
GI50 [3]: 1.6 µM
TGI [3]: 3.19 µM
GI50 [4]: 1.94 µM
TGI [4]: 4.15 µM
GI50 [5]: 1.97 µM
TGI [5]: 4.62 µM
GI50 [6]: 1.24 µM
TGI [6]: 3.61 µM
GI50 [7]: 1.15 µM
TGI [7]: 2.51 µM
GI50 [8]: 1.6 µM
TGI [8]: 4.23 µM
GI50 [9]: 1.49 µM
TGI [9]: 3.12 µM
GI50 [10]: 1.28 µM
TGI [10]: 2.74 µM

CCN(CC)CCNc1cc(-c2cccc(OC(F)(F)F)c2)nc2ccc(N3CCCC3)cc12
GI50 [1]: 1.34 µM and 1.28 µM and 1.9 µM
TGI [1]: 2.72 µM and 2.6 µM and 4.06 µM
GI50 [2]: 1.78 µM and 2.12 µM
TGI [2]: 4.04 µM and 4.32 µM
GI50 [3]: 1.6 µM and 1.83 µM and 1.85 µM
TGI [3]: 3.11 µM and 3.47 µM and 3.57 µM
GI50 [4]: 1.53 µM and 1.68 µM and 1.92 µM
TGI [4]: 2.9 µM and 3.28 µM and 3.93 µM
GI50 [5]: 1.75 µM and 1.84 µM and 1.98 µM
TGI [5]: 3.4 µM and 3.31 µM and 3.8 µM
GI50 [6]: 1.35 µM and 1.6 µM and 1.69 µM
TGI [6]: 3.54 µM and 3.94 µM and 4.22 µM
GI50 [7]: 1.24 µM and 1.26 µM and 1.54 µM
TGI [7]: 2.52 µM and 2.72 µM and 3.05 µM
GI50 [8]: 1.82 µM and 1.83 µM and 1.9 µM
TGI [8]: 4.11 µM and 3.77 µM and 4.41 µM
GI50 [9]: 1.45 µM and 1.69 µM
TGI [9]: 2.91 µM and 3.24 µM
GI50 [10]: 1.66 µM and 1.67 µM and 1.59 µM
TGI [10]: 3.19 µM and 3.23 µM

COc1cc(-c2nn(-c3cccc(NC(=O)c4ccc(N5CCOCC5)c(C(F)(F)F)c4)c3)cc2-c2ccncc2)ccc1Cl
GI50 [1]: 1.5 µM
TGI [1]: 7 µM
GI50 [2]: 0.471 µM
TGI [2]: > 28.9 µM
GI50 [3]: 0.932 µM
TGI [3]: > 42 µM
GI50 [4]: 0.585 µM
TGI [4]: > 100 µM
GI50 [5]: 0.57 µM
TGI [5]: > 100 µM
GI50 [6]: 0.269 µM
TGI [6]: > 100 µM
GI50 [7]: 0.299 µM
TGI [7]: > 32.9 µM
GI50 [8]: 0.147 µM
TGI [8]: 1.19 µM
GI50 [9]: 0.446 µM
TGI [9]: 1.69 µM
GI50 [10]: 0.561 µM
TGI [10]: 2.81 µM

S=c1nc(Cl)cc2[nH]c(Cl)cn12
TGI [1]: > 100 µM
TGI [2]: > 100 µM
TGI [3]: > 100 µM
TGI [4]: > 100 µM
TGI [5]: > 100 µM
TGI [6]: 43.3 µM
TGI [7]: 16.6 µM
TGI [8]: 6.49 µM
TGI [9]: 8.08 µM
TGI [10]: > 100 µM

COc1ccc2c(c1OC)OCC(CN(C)C)C2=O (stereo not given)
TGI [1]: 33.7 µM
TGI [2]: > 62.2 µM
TGI [3]: 38.7 µM
TGI [4]: 31.7 µM
TGI [5]: > 100 µM
TGI [6]: 8.56 µM
TGI [7]: 31.4 µM
TGI [8]: 48.5 µM
TGI [9]: 21.6 µM
TGI [10]: 25.9 µM
